Source: patent US10654890B2, “Cyclic peptide derivative, method for preparing same and composition thereof” (priority 2014, dated 2020)

Legend:
[1] = target: acetylcholine esterase (AChE) (Homo sapiens, UniProt P22303); assay: Acetylcholine esterase inhibitory activity test; type: biochemical; settings: 1000 nM; FIG. 11
Excerpt: Most of existing therapeutic agents for Alzheimer's disease have, as a target mechanism, the inhibitory activity for an acetylcholine esterase which is an enzyme for decomposing acetylcholine as a neurotransmitter. Namely, by inhibiting an acetylcholine esterase, the therapeutic agents for Alzheimer's disease increase an in vivo concentration of acetylcholine.

VGF gene = VGF gene expression in culture astrocyte (real time PCR); type: cell-based, mouse; settings: 25 μM; from 8 hours to 24 hours after the addition; p<0.05 vs before the addition; calibrated to GAPDH
Description: By adding the cyclic peptide derivative of 25 μM to an astrocyte of the secondary subculture, the influence on expression of the gene of NGF, GDNF, VFGF-A, BDNF, and VGF as a representative neurotrophic factor was determined over time.
Except that a cell suspension of an astrocyte of the secondary subculture was prepared to have cell concentration of 3×10^5 cells/ml and the time for exposing the astrocyte to the above 25 μM cyclic peptide derivative was set at 0, 1, 2, 4, 8, 12, and 24 hours, the astrocyte was cultured in the same order as above <6>. As a control group, LG-D-MEM (0% FBS) not added with any cyclic peptide derivative was used.
Each astrocyte which has been exposed to the cyclic peptide derivative during each time described above was collected, and then, by using RNeasy Mini Kit (QIAGEN), extraction and purification of total RNA were carried out. The extracted total RNA was quantified by using Nano Photometer (IMPLEN). For the reverse transcription reaction, cDNA was synthesized by reacting 500 ng of total RNA with PrimeScript RT Master Mix (TaKaRa) at 37° C. for 15 minutes using GeneAmp PCR System 9600 (PERKIN ELMER), and the reaction was terminated by heating for 5 seconds at 85° C. […]

[2] = tested on: senescence-accelerated model mouse SAMP8; assay: Morris water maze test; type: in vivo; settings: SAMP8, oral 25 μg/kg/day; vs SAMP8; p<0.05
Excerpt: As a mouse for an in vivo test of the cyclic peptide derivative, senescence-accelerated model mouse SAMP8 which is used as a cognitive disorder model animal of initial Alzheimer's disease accompanied with aging was selected, and as a control, SAMR1 mouse with normal aging was selected.
19-Week old male mice of SAMR1 and SAMP8 were purchased from Japan SLC, Inc., and divided into 5 groups, i.e., mouse group with normal aging (SAMR1), senescence-accelerated model mouse group (SAMP8), {P8+donepezil hydrochloride 1250 μg/kg/day} group as a positive control, and {P8+cyclic peptide derivative 2.5 μg/kg/day} group and {P8+cyclic peptide derivative 25 μg/kg/day} group as a test group. […] After 10 days of an acclimation period, all mice were provided with standard meal (MEQ, Oriental Yeast Company) and body weight of the animal was recorded everyday during the entire test period. […]
(3) {P8+donepezil hydrochloride 1250 μg/kg/day} group: As a positive control, donepezil hydrochloride (Sanyo Chemical Laboratories CO., LTD.) was dissolved in MQ and prepared to have a concentration of 1250 μg/kg (bodyweight), and then orally administered to a SAMP8 for 5 weeks by using a gastric sonde. The concentration was accurately calculated based on the bodyweight which has been measured every day. […]

Sequence of acetylcholine esterase (AChE) (P22303 32-614): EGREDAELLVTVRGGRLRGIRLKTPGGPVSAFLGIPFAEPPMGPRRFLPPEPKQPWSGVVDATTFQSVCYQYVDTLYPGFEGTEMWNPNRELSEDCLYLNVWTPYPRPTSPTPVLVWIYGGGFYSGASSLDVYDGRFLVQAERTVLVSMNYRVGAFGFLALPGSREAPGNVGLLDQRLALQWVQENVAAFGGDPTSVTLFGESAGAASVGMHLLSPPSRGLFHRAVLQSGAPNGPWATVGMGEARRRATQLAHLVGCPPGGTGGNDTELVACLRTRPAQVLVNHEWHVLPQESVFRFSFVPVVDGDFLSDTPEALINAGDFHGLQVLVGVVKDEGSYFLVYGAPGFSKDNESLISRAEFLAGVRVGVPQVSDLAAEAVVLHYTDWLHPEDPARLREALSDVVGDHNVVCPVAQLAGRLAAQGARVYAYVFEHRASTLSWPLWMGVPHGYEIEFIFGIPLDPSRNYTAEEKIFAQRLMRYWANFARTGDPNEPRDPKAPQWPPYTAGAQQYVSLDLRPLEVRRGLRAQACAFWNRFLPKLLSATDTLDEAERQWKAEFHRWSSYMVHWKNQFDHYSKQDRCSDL

## CCC1(C)Oc2cc(ccc2O)C(O)C(NC)C(=O)NC(C(C)C)C(=O)NC1C(=O)NC(CCC(=O)O)C(=O)O (stereo not drawn) [cyclic peptide derivative]
[1]
  AChE inhibitory activity: absolutely no AChE activity was observed
VGF gene
  expression of the gene of VGF: increased
[2]
  spatial learning ability (time in zone (%) in quadrant 1): significantly recovered
